Measurements: paper PMC11352859, “Functionalized Congeners of 2H-Chromene P2Y6 Receptor Antagonists” (Cells, 2024)
Where “and” joins values, the source holds several entries; their conditions need not be identical. Equal entries are not always repeated. Where two headings read alike, the source gives them in different places.

What was measured:
[1] = target: T1, hP2Y6R (Homo sapiens, UniProt Q15077); assay: UDP (100 nM)-induced Ca2+ mobilization in hP2Y6R stably transfected 1321N1 astrocytoma cells; assay type: cell-based; conditions: UDP 100 nM; for IC50: 3–4 independent triplicate determinations
T1 construct: expressed in transfected cells
T1 sequence (Q15077 whole entry): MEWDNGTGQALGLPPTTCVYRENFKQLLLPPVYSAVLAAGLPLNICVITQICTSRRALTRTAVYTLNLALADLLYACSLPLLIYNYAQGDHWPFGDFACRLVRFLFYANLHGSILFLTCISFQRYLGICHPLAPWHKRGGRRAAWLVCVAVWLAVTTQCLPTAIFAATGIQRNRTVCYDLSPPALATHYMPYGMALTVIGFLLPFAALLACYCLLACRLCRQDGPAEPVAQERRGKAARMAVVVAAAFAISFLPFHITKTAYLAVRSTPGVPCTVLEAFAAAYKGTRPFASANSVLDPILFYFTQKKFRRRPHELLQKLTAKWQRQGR
Method: To screen for P2Y6R antagonist activity, PLC-mediated calcium mobilization assays were carried out using the recombinant human P2Y6R stably expressed in 1321N1 astrocytoma cells (hP2Y6R-1321N1) according to the previously published method. Briefly, the hP2Y6R-1321N1 cells were seeded on 96-well black plates and incubated overnight. The antagonists were pretreated along with the FLIPR dye (Calcium 6 assay kit, Molecular Devices, San Jose, CA, USA) containing 5 mM probenecid for 45 min, prior to agonist addition followed by an immediate intracellular Ca^2+ measurement. […] Here, probenecid was used as an organic anion transporter inhibitor to prevent the efflux of the dye into the extracellular environment. During incubation, the membrane permeable dye enters the cytoplasm and cleaves the acetoxymethyl protection to enable Ca^2+ binding. When the P2Y6R was activated by UDP, the increased calcium concentration was directly measured by intracellular changes in the fluorescence intensity with a Fluorescent Imaging Plate Reader (FLIPR^TETRA, Molecular Devices, San Jose, CA, USA).

[2] = system: other P2YRs; conditions: at high µM concentrations; ref [29],[43]; cited from earlier work
[3] = target: T2, D5 (Homo sapiens, UniProt P21918); assay: PDSP binding assay, D5; conditions: PDSP, mean, n = 2; read-out: Ki, D5
T2 construct: NIMH Psychoactive Drug Screening Program (PDSP)
T2 sequence (P21918 whole entry): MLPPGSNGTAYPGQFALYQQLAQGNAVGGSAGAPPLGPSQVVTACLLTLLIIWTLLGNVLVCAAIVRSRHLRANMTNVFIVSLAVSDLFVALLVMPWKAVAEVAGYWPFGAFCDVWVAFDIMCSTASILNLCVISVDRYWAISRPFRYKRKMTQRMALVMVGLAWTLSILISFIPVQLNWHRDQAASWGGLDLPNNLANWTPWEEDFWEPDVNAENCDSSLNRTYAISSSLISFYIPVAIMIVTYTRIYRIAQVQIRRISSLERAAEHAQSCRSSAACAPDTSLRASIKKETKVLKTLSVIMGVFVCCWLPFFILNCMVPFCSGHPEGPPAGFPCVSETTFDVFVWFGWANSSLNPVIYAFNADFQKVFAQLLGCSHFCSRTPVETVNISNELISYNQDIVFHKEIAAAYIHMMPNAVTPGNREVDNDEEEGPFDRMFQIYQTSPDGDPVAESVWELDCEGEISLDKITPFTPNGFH
Source text: (§1) Table S2. Off-target screening (to replace table later). We thank Dr. Bryan L. Roth (Univ. North Carolina at Chapel Hill) and National Institute of Mental Health's Psychoactive Drug Screening Program (Contract # HHSN-271-2008-00025-C) for screening data. Reference: Besnard et al.
(§2) Procedures: https://pdsp.unc.edu/pdspweb/content/UNC-CH%20Protocol%20Book.pdf […]
(§3) nucleosides were found at the following sites (human unless noted): 5HT1A, 5HT1B, 5HT1D, […]
(§4) β3, BZP rat brain site, D1, D2, D3, D4, D5, GABAA, H1, H2, H3, H4, M1, M2, M5, δ-opioid receptor (DOR), κ-opioid receptor (KOR), μ-opioid receptor (MOR), σ1, σ2, DAT, NET, SERT. Ki values […]
(§5) Compound # PDSP # Receptor LogKi Ki (nM)

[4] = target: T3, α2A (Homo sapiens, UniProt P08913); assay: PDSP binding assay, α2A; conditions: PDSP, mean, n = 2; read-out: Ki, α2A
T3 construct: NIMH Psychoactive Drug Screening Program (PDSP)
T3 sequence (P08913 1-465): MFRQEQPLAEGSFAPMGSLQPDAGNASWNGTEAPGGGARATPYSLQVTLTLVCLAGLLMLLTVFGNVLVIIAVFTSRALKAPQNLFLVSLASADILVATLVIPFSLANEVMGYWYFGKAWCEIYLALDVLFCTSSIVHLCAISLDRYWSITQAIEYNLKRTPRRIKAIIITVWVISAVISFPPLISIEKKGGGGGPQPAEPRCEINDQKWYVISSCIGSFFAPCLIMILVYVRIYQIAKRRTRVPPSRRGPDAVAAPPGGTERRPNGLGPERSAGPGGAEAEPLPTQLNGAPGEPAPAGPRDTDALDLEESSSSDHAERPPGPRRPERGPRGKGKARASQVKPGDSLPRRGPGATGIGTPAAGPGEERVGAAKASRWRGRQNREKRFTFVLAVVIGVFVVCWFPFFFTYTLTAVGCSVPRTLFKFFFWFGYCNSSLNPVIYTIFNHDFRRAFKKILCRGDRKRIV
Source text: as §1, §2, §3, §4, §5

[5] = target: T4, hP2Y14R (Homo sapiens, UniProt Q15391); design: method as in PMID 28527783, PMID 23235874; conditions: previous members of the series; ref [29],[43]; cited from earlier work
T4 construct: expressed in transfected cells
T4 sequence (Q15391 1-338): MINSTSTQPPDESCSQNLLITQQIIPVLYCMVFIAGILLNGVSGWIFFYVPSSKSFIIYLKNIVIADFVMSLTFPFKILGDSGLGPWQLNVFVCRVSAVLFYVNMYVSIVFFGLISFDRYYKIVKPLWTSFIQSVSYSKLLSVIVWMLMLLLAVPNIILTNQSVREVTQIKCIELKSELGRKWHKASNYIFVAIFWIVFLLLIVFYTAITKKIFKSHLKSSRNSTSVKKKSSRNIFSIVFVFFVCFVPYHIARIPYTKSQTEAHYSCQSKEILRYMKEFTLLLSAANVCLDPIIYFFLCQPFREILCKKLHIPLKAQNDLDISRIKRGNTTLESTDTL

[6] = target: T5, 5-HT1D (Homo sapiens, UniProt P28221); assay: PDSP binding assay, 5-HT1D; conditions: PDSP, mean, n = 2; read-out: Ki, 5-HT1D
T5 construct: NIMH Psychoactive Drug Screening Program (PDSP)
T5 sequence (P28221 whole entry): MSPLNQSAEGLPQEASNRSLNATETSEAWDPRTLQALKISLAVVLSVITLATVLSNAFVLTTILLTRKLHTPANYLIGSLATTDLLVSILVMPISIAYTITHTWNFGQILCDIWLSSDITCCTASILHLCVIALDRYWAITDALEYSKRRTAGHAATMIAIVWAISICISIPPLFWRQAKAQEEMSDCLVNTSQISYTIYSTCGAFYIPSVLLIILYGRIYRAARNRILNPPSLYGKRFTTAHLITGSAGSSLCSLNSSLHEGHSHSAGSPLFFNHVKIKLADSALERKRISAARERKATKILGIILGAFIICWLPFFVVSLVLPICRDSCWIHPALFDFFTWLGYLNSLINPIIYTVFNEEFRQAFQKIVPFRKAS
Source text: as §1, §2, §3, §4, §5

[7] = target: T6, α2B (Homo sapiens, UniProt P18089); assay: PDSP binding assay, α2B; conditions: mean, n = 2
T6 construct: NIMH Psychoactive Drug Screening Program (PDSP)
T6 sequence (P18089 1-450): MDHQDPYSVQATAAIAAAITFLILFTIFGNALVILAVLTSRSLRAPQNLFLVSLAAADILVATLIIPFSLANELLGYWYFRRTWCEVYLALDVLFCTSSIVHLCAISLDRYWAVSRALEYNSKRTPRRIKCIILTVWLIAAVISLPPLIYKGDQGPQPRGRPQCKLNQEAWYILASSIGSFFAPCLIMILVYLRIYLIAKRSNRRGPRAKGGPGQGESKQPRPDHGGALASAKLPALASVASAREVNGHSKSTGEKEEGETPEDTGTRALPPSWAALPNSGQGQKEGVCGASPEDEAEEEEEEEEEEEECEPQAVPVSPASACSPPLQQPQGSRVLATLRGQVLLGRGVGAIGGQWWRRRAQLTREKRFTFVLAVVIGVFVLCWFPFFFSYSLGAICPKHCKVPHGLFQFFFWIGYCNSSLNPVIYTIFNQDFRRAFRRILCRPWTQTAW
Source text: as §1, §2, §3, §4, §5

[8] = system: HeLa cells; assay: MTT cell viability assay, HeLa cells; assay type: cell-based, human; conditions: 12 h, MTT
Method: (§6) The 1321N1 astrocytoma (hP2Y6R-overexpressing) and HeLa (non-transfected) cell lines were cultured in Dulbecco’s modified Eagle’s medium (DMEM, HyClone, Logan, UT, USA) supplemented with 5% heat-inactivated fetal bovine serum (FBS, HyClone, UT, USA), 100 U/mL penicillin, and 100 µg/mL streptomycin in 5% CO2 at 37 °C. The cell viability was determined using an MTT kit (Sigma, St. Louis, MO, USA) according to the manufacturer’s instructions. Briefly, 1 × 10^4 cells were seeded in triplicate in 96-well plates. The hP2Y6R-astrocytoma and HeLa cells were treated with a P2Y6R agonist and antagonists at a range of concentrations and incubated for 12 h. The cell viability was measured at 490 nm using a SpectraMax-M5 Spectrometer (Molecular Devices, San Jose, CA, USA).

[9] = system: hP2Y6R-1321N1 human astrocytoma cells; assay: MTT cell viability assay, hP2Y6R-1321N1 astrocytoma cells; assay type: cell-based; conditions: P2Y6R-astrocytoma, 12 h, MTT
Method: as §6

[10] = read-out: IC50, hP2Y6R (Mean ± SEM)

NCCC#Cc1ccc2c(c1)C=C([N+](=O)[O-])C(C(F)(F)F)O2 (centres unmarked) [Compound 21]
IC50 [1, 10]: 22.6 ± 9.3 µM

NCCCCCCCCC#Cc1ccc2c(c1)C=C([N+](=O)[O-])C(C(F)(F)F)O2 (centres unmarked) [Compound 34]
IC50 [1, 10]: 20 ± 5.2 µM

CC(C)(C)OC(=O)NCCCC#Cc1ccc2c(c1)C=C([N+](=O)[O-])C(C(F)(F)F)O2 (centres unmarked) [Compound 22]
IC50 [1, 10]: 1.87 ± 0.11 µM

NCCCCCCCCC#Cc1cccc2c1OC(C(F)(F)F)C([N+](=O)[O-])=C2 (centres unmarked) [Compound 40]
IC50 [1, 10]: 20 to 30 µM and 34.8 µM

CC(C)(C)n1nc(-c2nc3cc(Cl)ccc3[nH]2)cc1-c1ccco1 [Compound 4, reference compound]
inhibition at 100 µM ([1]; 1321-N1, at 100 µM): 18.9 ± 8.5%
IC50 ([1]; IC50, hP2Y6R (Mean ± SEM)): > 100 µM

CC[Si](C#Cc1cccc2c1OC(C(F)(F)F)C([N+](=O)[O-])=C2)(CC)CC (centres unmarked) [Compound 14]
inhibition at most other P2YRs [2]: minor

CC(C)(C)OC(=O)NCCC#Cc1ccc2c(c1)C=C([N+](=O)[O-])C(C(F)(F)F)O2 (centres unmarked) [Compound 20]
Ki [3]: 4.4 µM
Ki [4]: 1.6 µM
IC50 [1, 10]: 0.587 ± 0.087 µM

NCCCC#Cc1ccc2c(c1)C=C([N+](=O)[O-])C(C(F)(F)F)O2 (centres unmarked) [Compound 23]
IC50 [1, 10]: 9.98 ± 1.37 µM

O=[N+]([O-])C1=Cc2cccc(Cl)c2OC1C(F)(F)F (centres unmarked) [Compound 8]
hP2Y14R binding [5]: inactive

CC(C)(C)OC(=O)NCCCCCCC#Cc1ccc2c(c1)C=C([N+](=O)[O-])C(C(F)(F)F)O2 (centres unmarked) [Compound 28]
IC50 [1, 10]: 10.5 ± 6.5 µM

CC(C)(C)OC(=O)NCCCCCC#Cc1ccc2c(c1)C=C([N+](=O)[O-])C(C(F)(F)F)O2 (centres unmarked) [Compound 26]
Ki [4]: 0.75 µM
Ki [6]: 4.8 µM
IC50 [1, 10]: 1.19 ± 0.25 µM
Ki [7]: 1.7 µM

O=[N+]([O-])C1=Cc2ccccc2OC1C(F)(F)F (centres unmarked) [Compound 2a, reference compound]
hP2Y14R binding [5]: inactive
IC50 [1, 10]: 2.91 ± 1.21 µM
inhibition at most other P2YRs [2]: minor

NCCCCCCCC#Cc1ccc2c(c1)C=C([N+](=O)[O-])C(C(F)(F)F)O2 (centres unmarked) [Compound 32]
IC50 [1, 10]: 6.37 ± 1.82 µM

O=[N+]([O-])C1=Cc2cc(C#Cc3ccc(O)cc3)ccc2OC1C(F)(F)F (centres unmarked) [Compound 15]
hP2Y14R binding [5]: inactive

CC(C)(C)OC(=O)NCCCCCCCCC#Cc1ccc2c(c1)C=C([N+](=O)[O-])C(C(F)(F)F)O2 (centres unmarked) [Compound 33]
IC50 [1, 10]: 45.4 ± 17.7 µM

NCCCCCC#Cc1ccc2c(c1)C=C([N+](=O)[O-])C(C(F)(F)F)O2 (centres unmarked) [Compound 27]
IC50 [1, 10]: 12.4 ± 1.3 µM

O=[N+]([O-])C1=Cc2ccc(Cl)cc2OC1C(F)(F)F (centres unmarked) [Compound 7]
hP2Y14R binding [5]: inactive

O=[N+]([O-])C1=Cc2cc(C#Cc3ccc(CO)cc3)ccc2OC1C(F)(F)F (centres unmarked) [Compound 16]
hP2Y14R binding [5]: inactive

O=[N+]([O-])C1=Cc2cccc(C#CCCCCCCCCBr)c2OC1C(F)(F)F (centres unmarked) [Compound 36, 8-(10-Bromodec-1-yn-1-yl)-3-nitro-2-(trifluoromethyl)-2H-chromene]
IC50 [1, 10]: 4.79 ± 1.45 µM

CC(C)(C)OC(=O)NCCCCCCCCC#Cc1cccc2c1OC(C(F)(F)F)C([N+](=O)[O-])=C2 (centres unmarked) [Compound 39]
IC50 [1, 10]: 23.8 ± 6.8 µM

O=C(O)CCOCCOCCOCCOCC#Cc1cccc2c1OC(C(F)(F)F)C([N+](=O)[O-])=C2 (centres unmarked) [Compound 41]
IC50 [1, 10]: > 50 µM

O=C(O)CCOCCOCCOCCOCC#Cc1ccc2c(c1)C=C([N+](=O)[O-])C(C(F)(F)F)O2 (centres unmarked) [Compound 35]
IC50 [1, 10]: 63.3 ± 30 µM

NCCCCCCC#Cc1ccc2c(c1)C=C([N+](=O)[O-])C(C(F)(F)F)O2 (centres unmarked) [Compound 29]
IC50 [1, 10]: 20 ± 5.1 µM

O=[N+]([O-])C1=Cc2cc(F)ccc2OC1C(F)(F)F (centres unmarked) [MRS4830, 6-fluoro-3-nitro-2-(trifluoromethyl)-2H-chromene]
% survival ([8]; 0.1 µM): 94%
% survival ([8]; 0.5 µM): 91%
% survival ([8]; 1 µM): 93%
% survival ([8]; 5 µM): 87%
% survival ([8]; 10 µM): 83%
% survival ([9]; 0.1 µM): 100%
% survival ([9]; 0.5 µM): 102%
% survival ([9]; 1 µM): 101%
% survival ([9]; 5 µM): 96%
% survival ([9]; 10 µM): 89%

NCCCCCCCC#Cc1cccc2c1OC(C(F)(F)F)C([N+](=O)[O-])=C2 (centres unmarked) [Compound 38]
IC50 [1, 10]: 13 ± 3.9 µM

O=[N+]([O-])C1=Cc2cc(C#CCCCCCCCCBr)ccc2OC1C(F)(F)F (centres unmarked) [Compound 19]
IC50 [1, 10]: 14 ± 4.7 µM

NCCCCC#Cc1ccc2c(c1)C=C([N+](=O)[O-])C(C(F)(F)F)O2 (centres unmarked) [Compound 25]
IC50 [1, 10]: 5.39 ± 1.49 µM
